In patent US11802111B2, “Cyclobutyl amide monoacylglycerol lipase modulators” (Janssen Pharmaceutica NV, priority 2020, dated 2023) one finds IC50 data, which are given here for twelve molecules.

Usually IC50 stands for the concentration needed to halve the response being measured. High values mean lower potency, low ones higher potency.

Sequence of human MGL from HeLa cells (Q99685 whole entry): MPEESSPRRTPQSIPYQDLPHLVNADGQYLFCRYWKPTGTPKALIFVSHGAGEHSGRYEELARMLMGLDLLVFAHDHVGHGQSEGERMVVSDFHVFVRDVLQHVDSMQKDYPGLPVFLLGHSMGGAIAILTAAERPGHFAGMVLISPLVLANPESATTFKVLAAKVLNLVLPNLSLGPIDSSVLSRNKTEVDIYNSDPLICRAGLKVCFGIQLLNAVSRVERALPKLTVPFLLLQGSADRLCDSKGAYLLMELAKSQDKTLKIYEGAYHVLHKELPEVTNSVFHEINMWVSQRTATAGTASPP

In this experiment the target is human MGL from HeLa cells (Homo sapiens (Human), UniProt Q99685). Briefly: MGL in vitro activity assay ([glycerol-1,3-3H]-oleoyl glycerol hydrolysis, activated carbon filtration). The following applies: 300 nM [Glycerol-1,3-3H]-oleoyl glycerol, one hour. The class given is biochemical. In short, it runs like this:
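Endogenous human MGL in HeLa cells/homogenates incubated 1 h with test compounds and 300 nM [glycerol-1,3-3H]-oleoyl glycerol. Released 3H-glycerol passing an activated carbon filter counted as activity; screening at 10 μM compound, top IC50 concentration set empirically.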
`Cc1cn(C)c2nc(OC3CCC4(CC3)CN(C(=O)[C@H]3C[C@@](C)(O)C3)C4)ccc12` [Example 471, (7-((1,3-Dimethyl-1H-pyrrolo[2,3-b]pyridin-6-yl)oxy)-2-azaspiro[3.5]nonan-2-yl)((1s,3s)-3-hydroxy-3-methylcyclobutyl)methanone]: the IC50 turned out to be 2 nM. That is a single-digit nanomolar value. The result for `Cc1cc2ccc(OC3CCC4(CC3)CN(C(=O)[C@H]3C[C@@](C)(O)C3)C4)nc2n1C` [Example 472, (7-((1,2-Dimethyl-1H-pyrrolo[2,3-b]pyridin-6-yl)oxy)-2-azaspiro[3.5]nonan-2-yl)((1s,3s)-3-hydroxy-3-methylcyclobutyl)methanone] reads 26 nM. The value for `Cc1cc2ccn(C)c2nc1OC1CCC2(CC1)CN(C(=O)[C@H]1C[C@@](C)(O)C1)C2` [Example 473, (7-((1,5-Dimethyl-1H-pyrrolo[2,3-b]pyridin-6-yl)oxy)-2-azaspiro[3.5]nonan-2-yl)((1s,3s)-3-hydroxy-3-methylcyclobutyl)methanone] was 1.2 nM; that for `Cn1cc(F)c2ccc(OC3CCC4(CC3)CN(C(=O)[C@H]3C[C@@](C)(O)C3)C4)nc21` [Example 474, (7-((3-Fluoro-1-methyl-1H-pyrrolo[2,3-b]pyridin-6-yl)oxy)-2-azaspiro[3.5]nonan-2-yl)((1s,3s)-3-hydroxy-3-methylcyclobutyl)methanone] was 5.5 nM; that for `CCn1cc(F)c2ccc(OC3CCC4(CC3)CN(C(=O)[C@H]3C[C@@](C)(O)C3)C4)nc21` [Example 475, (7-((1-Ethyl-3-fluoro-1H-pyrrolo[2,3-b]pyridin-6-yl)oxy)-2-azaspiro[3.5]nonan-2-yl)((1s,3s)-3-hydroxy-3-methylcyclobutyl)methanone] was 4.6 nM. In turn, `Cn1cc(C(F)(F)F)c2ccc(OC3CCC4(CC3)CN(C(=O)[C@H]3C[C@@](C)(O)C3)C4)nc21` [Example 476, ((1s,3s)-3-Hydroxy-3-methylcyclobutyl)(7-((1-methyl-3-(trifluoromethyl)-1H-pyrrolo[2,3-b]pyridin-6-yl)oxy)-2-azaspiro[3.5]nonan-2-yl)methanone] yielded an IC50 of 1.4 nM.

As for `Cn1ncc2ccc(OC3CCC4(CC3)CN(C(=O)[C@H]3C[C@@](C)(O)C3)C4)nc21` [Example 477, ((1s,3s)-3-Hydroxy-3-methylcyclobutyl)(7-((1-methyl-1H-pyrazolo[3,4-b]pyridin-6-yl)oxy)-2-azaspiro[3.5]nonan-2-yl)methanone], half-maximal inhibition (IC50) was put at 146 nM. This IC50 lies about 100-fold higher than the previous one. The result for `COc1cc(C)cc(C2CC3(CCN(C(=O)[C@H]4C[C@@](C)(O)C4)CC3)C2)c1` [Example 478, ((1s,3s)-3-Hydroxy-3-methylcyclobutyl)(2-(3-methoxy-5-methylphenyl)-7-azaspiro[3.5]nonan-7-yl)methanone] reads 203 nM; that for `Cc1cc(C(F)(F)F)ccc1OC1CC2(CCN(C(=O)[C@H]3C[C@@](C)(O)C3)CC2)C1` [Example 479, ((1s,3s)-3-Hydroxy-3-methylcyclobutyl)(2-(2-methyl-4-(trifluoromethyl)phenoxy)-7-azaspiro[3.5]nonan-7-yl)methanone], 3.1 nM; that for `Cc1cc(OC2CC3(CCN(C(=O)[C@H]4C[C@@](C)(O)C4)CC3)C2)ccc1C(F)(F)F` [Example 480, ((1s,3s)-3-Hydroxy-3-methylcyclobutyl)(2-(3-methyl-4-(trifluoromethyl)phenoxy)-7-azaspiro[3.5]nonan-7-yl)methanone], 5.8 nM. The value for `Cc1cc(C(F)(F)F)cnc1OC1CC2(CCN(C(=O)[C@H]3C[C@@](C)(O)C3)CC2)C1` [Example 481, ((1s,3s)-3-Hydroxy-3-methylcyclobutyl)(2-((3-methyl-5-(trifluoromethyl)pyridin-2-yl)oxy)-7-azaspiro[3.5]nonan-7-yl)methanone] was 15 nM; that for `Cc1nc(OC2CC3(CCN(C(=O)[C@H]4C[C@@](C)(O)C4)CC3)C2)ccc1C(F)(F)F` [Example 482, ((1s,3s)-3-Hydroxy-3-methylcyclobutyl)(2-((6-methyl-5-(trifluoromethyl)pyridin-2-yl)oxy)-7-azaspiro[3.5]nonan-7-yl)methanone] was 61 nM.
